According to patent US5312818A, “Method of protecting against and/or treating ulcerative gastrointestinal conditions using a thromboxane A2 receptor antagonist and combination useful in preventing and/or treating ulcers and/or inflammation” (E. R. Squibb & Sons, Inc., priority 1992, dated 1994):
Like-named read-outs stand apart in the source and are kept apart here.

Tests used:
[1] = system: aspirin-induced gastric ulcers; experiment: aspirin-induced gastric ulcers in rats; type: in vivo, male Sprague-Dawley rats; details: for inhibition of gastric erosions: aspirin treated rats; for % Ulcer Inhibition: Table 1
Experimental: (§1) The following experiment was carried out to evaluate thromboxane receptor involvement in other models of gastro-intestinal ulcer.
[…] In each of these experiments, a dose of SQ 33,961 or vehicle (9.5% ethanol in 0.02% Na2 CO3, pH 9; 5 mL/kg) was administered by intraperitoneal injection 60 minutes before administration of aspirin, aspirin vehicle (1% methyl cellulose; 5 mL/kg, p.o.), indomethacin, or indomethacin vehicle (3.2% Na2 CO3, pH 8; 5 mL/kg, s.c.) in fasted male Sprague-Dawley rats (174-352 g). Three hours later, the rats were sacrificed by CO2 asphyxiation, the stomachs excised and opened, the lumen rinsed with saline, and the number and areas of gastric lesions measured.
*Aspirin Dose = 200 mg/kg, p.o. 1 hour after dosing with Test Agent. Rats
were sacrificed and ulcers measured 3 hours after aspirin administration.

[2] = system: indomethacin-induced gastric ulcers; type: in vivo, male Sprague-Dawley rats; details: for inhibition of gastric erosions: indomethacin treated rats; for % Ulcer Inhibition: Table 1
Experimental: as §1
In two studies, SQ 33,961 (1 and 10 mg/kg, i.p.) was evaluated in models of gastric ulcer induced by indomethacin (20 mg/kg, s.c.) and aspirin (200 mg/kg, p.o.). In each of these experiments, a dose of SQ 33,961 or vehicle (9.5% ethanol in 0.02% Na2 CO3, pH 9; 5 mL/kg) was administered by intraperitoneal injection 60 minutes before administration of aspirin, aspirin vehicle (1% methyl cellulose; 5 mL/kg, p.o.), indomethacin, or indomethacin vehicle (3.2% Na2 CO3, pH 8; 5 mL/kg, s.c.) in fasted male Sprague-Dawley rats (174-352 g). Three hours later, the rats were sacrificed by CO2 asphyxiation, the stomachs excised and opened, the lumen rinsed with saline, and the number and areas of gastric lesions measured.

carrageenan paw edema = carrageenan paw edema model in rats; type: in vivo; details: for effect on development of paw edema (in words): 10 mg/kg i.p.; for Paw Volume 3 hours after Carrageenan injection: SQ 33,961 10 mg/kg i.p. and/or indomethacin 10 mg/kg i.p., 7-8 rats
Experimental: Paw volumes were measured before and hourly after carageenan injection in the 4 groups (N=7-8 each).

[3] = system: taurocholic acid-induced ulcers; experiment: taurocholic acid-induced gastric ulcers in rats; type: in vivo; details: i.p.
Experimental: The following experiment was conducted to determine the cytoprotective potential of the thromboxane receptor antagonist SQ 33,961 on taurocholic acid-induced ulcers in rats.
Fasted rats were treated with either vehicle (9.5% ethanol in 0.02% Na2 CO3, pH 9; 5 mL/kg, i.p.) or SQ 33,961 (0.01 to 10 mg/kg, i.p.) 60 minutes before administration of either vehicle (0.2N HCl, pH 2; 1.0 mL, p.o.) or taurocholic acid (100 mM, pH 2; 1.0 mL, p.o.). One hour later, rats were sacrificed and gastric lesion number and areas measured. There were no gastric erosions in the groups of rats challenged with the taurocholic acid vehicle.

CC(=O)Oc1ccccc1C(=O)O [Aspirin, reference compound]
Average Gastric Lesion Area ([1]; Aspirin (200 mg/kg, p.o.) + Vehicle (CONTROL), 11 rats, text calls it lesion area in mm^2): 10.5 ± 2.01 | severity of gastric lesions (in words) ([1]; aspirin 200 mg/kg, p.o. versus indomethacin 20 mg/kg, s.c.): more severe gastric lesions than indomethacin | Average total lesion area ([1]; aspirin 200 mg/kg, p.o., three hours, N=11): 10.5±2.1 mm^2

O=C(O)Cc1ccc(CCNS(=O)(=O)c2ccc(Cl)cc2)cc1 [BM 13,505, 4-[2-(4-chlorobenzenesulfonamido)ethyl]phenylacetic acid, reference compound]
Average Gastric Lesion Area ([1]; 20.00 mg/kg, i.p., N=9, Table 3, aspirin 200 mg/kg, p.o., vehicle 11.18 ± 2.35): 4.68 ± 1.63 mm^2 | effect on aspirin-induced gastric erosions (in words) ([1]; aspirin 200 mg/kg, p.o.): significantly diminished aspirin-induced gastric erosions

O=C(O)c1ccc(OCCn2ccnc2)cc1 [Dazoxiben, reference compound]
Average Gastric Lesion Area ([1]; 50.0 mg/kg, i.p., N=6, Table 3, aspirin 200 mg/kg, p.o.): 25.40 ± 8.50 mm^2 | effect on aspirin-induced gastric erosions (in words) ([1]; aspirin 200 mg/kg, p.o.): did not diminish aspirin-induced gastric erosions

COc1ccc2c(c1)c(CC(=O)O)c(C)n2C(=O)c1ccc(Cl)cc1 [Indomethacin, reference compound]
Gastric lesion area (mm^2) ([2]; Indomethacin (20 mg/kg, s.c.) + Vehicle (CONTROL), 16 rats, text calls it lesion area in mm^2): 2.90 ± 0.81 | Average total lesion area ([2]; indomethacin 20 mg/kg, s.c., three hours, N=16): 2.9±0.8 mm^2 | effect on development of paw edema (in words) (carrageenan paw edema): significantly inhibited edema formation | Paw Volume 3 hours after Carrageenan injection (carrageenan paw edema): 2.2 ± 0.08 mL

O=C(O)CCc1ccccc1C[C@@H]1[C@H](c2nc(C(=O)NCCCCC3CCCCC3)co2)[C@H]2CC[C@@H]1O2 [SQ 33,961, [1S-(1α,2α,3α,4α)]-2-[[3-[4-[[(4-cyclohexylbutyl)amino]carbonyl]-2-oxazolyl]-7-oxabicyclo[2.2.1]hept-2-yl]methyl]benzenepropanoic acid]
reduction of gastric lesion area (in words) ([3]; 0.01 to 10 mg/kg): dose-related reduction of gastric lesion area | ED50 ([3]; Rattus norvegicus, ip, 1 h, 60 minutes before taurocholic acid (100 mM, pH 2; 1.0 mL, p.o.), measured one hour later, read-out: ID50, reduction of gastric lesion area): 0.012 mg/kg | Average Gastric Lesion Area ([1]; 0.1 mg/kg, i.p., N=6, Table 3, aspirin 200 mg/kg, p.o.): 6.21 ± 1.66 mm^2 | Average Gastric Lesion Area ([1]; 1.0 mg/kg, i.p., N=9, Table 3, aspirin 200 mg/kg, p.o.): 2.86 ± 1.02 mm^2 | inhibition of gastric erosions ([1]; 1 mg/kg, i.p.): about 70% | Average Gastric Lesion Area ([1]; 10.0 mg/kg, i.p., N=9, Table 3, aspirin 200 mg/kg, p.o.): 0.62 ± 0.34 mm^2 | inhibition of gastric erosions ([1]; 10 mg/kg, i.p.): ~95% | Average Gastric Lesion Area ([1]; Aspirin (200 mg/kg, p.o.) + 1 mg/kg, i.p., 9 rats): 2.86 ± 1.02 | % Ulcer Inhibition ([1]; Aspirin (200 mg/kg, p.o.) + 1 mg/kg, i.p.): 73% | Average Gastric Lesion Area ([1]; Aspirin (200 mg/kg, p.o.) + 10 mg/kg, i.p., 9 rats): 0.62 ± 0.34 | % Ulcer Inhibition ([1]; Aspirin (200 mg/kg, p.o.) + 10 mg/kg, i.p.): 94% | effect on aspirin-induced gastric erosions (in words) ([1]; aspirin 200 mg/kg, p.o.): dose related reductions in gastric erosions | inhibition of gastric erosions ([2]; 1 mg/kg, i.p.): about 70% | inhibition of gastric erosions ([2]; 10 mg/kg, i.p.): ~95% | Gastric lesion area (mm^2) ([2]; Indomethacin (20 mg/kg, s.c.) + 1 mg/kg, i.p., 15 rats): 0.94 ± 0.41 | % Ulcer Inhibition ([2]; Indomethacin (20 mg/kg, s.c.) + 1 mg/kg, i.p.): 68% | Gastric lesion area (mm^2) ([2]; Indomethacin (20 mg/kg, s.c.) + 10 mg/kg, i.p., 15 rats): 0.08 ± 0.07 | % Ulcer Inhibition ([2]; Indomethacin (20 mg/kg, s.c.) + 10 mg/kg, i.p.): 97% | effect on development of paw edema (in words) (carrageenan paw edema): no significant effect on the development of paw edema | Paw Volume 3 hours after Carrageenan injection (carrageenan paw edema): 2.6 ± 0.11 mL | effect on antiphlogistic activity of indomethacin (in words) (carrageenan paw edema; SQ 33,961 10 mg/kg i.p., indomethacin 10 mg/kg i.p.): this antiphlogistic activity was not inhibited
